Patent publication US12428415B2, “Matriptase 2 inhibitors and uses thereof” (Disc Medicine, Inc., priority 2018, dated 2025)
Like-named read-outs stand apart in the source and are kept apart here.

Target: T1, Human Recombinant Matriptase 2 (Homo sapiens, UniProt Q8IU80)
T1 construct: purchased Enzo Life Sciences (an in-house preparation was also used) ALX-201-752-1
T1 sequence (Q8IU80 1-811): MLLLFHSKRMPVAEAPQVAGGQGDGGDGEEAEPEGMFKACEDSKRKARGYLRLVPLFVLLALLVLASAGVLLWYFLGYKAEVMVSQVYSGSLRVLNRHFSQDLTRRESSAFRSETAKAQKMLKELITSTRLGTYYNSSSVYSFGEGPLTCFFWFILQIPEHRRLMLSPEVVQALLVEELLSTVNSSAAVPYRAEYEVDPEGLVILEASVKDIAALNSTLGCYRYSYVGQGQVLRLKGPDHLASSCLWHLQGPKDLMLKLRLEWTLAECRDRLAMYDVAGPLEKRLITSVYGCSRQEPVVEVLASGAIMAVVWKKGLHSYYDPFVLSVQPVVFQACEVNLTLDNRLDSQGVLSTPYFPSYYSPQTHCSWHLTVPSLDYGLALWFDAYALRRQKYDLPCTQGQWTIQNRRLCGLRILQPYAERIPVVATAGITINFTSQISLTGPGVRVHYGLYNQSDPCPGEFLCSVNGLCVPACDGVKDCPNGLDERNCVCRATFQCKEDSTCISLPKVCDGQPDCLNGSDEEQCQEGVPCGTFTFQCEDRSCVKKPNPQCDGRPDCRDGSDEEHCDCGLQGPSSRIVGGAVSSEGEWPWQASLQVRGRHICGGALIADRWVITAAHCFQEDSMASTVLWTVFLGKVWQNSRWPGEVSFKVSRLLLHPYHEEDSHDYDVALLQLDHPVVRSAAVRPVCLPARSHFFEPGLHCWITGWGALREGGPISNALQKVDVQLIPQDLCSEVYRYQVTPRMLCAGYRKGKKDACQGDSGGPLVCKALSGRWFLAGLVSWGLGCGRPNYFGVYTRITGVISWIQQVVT
Assay: Matriptase 2 fluorescence based inhibition assay, Method B (50 mM TRIS pH 7.5, 150 mM NaCl, 0.01% gelatin)
Assay type: biochemical
Details: for inhibition at 1 µM: read-out: Mar-2 % inhibition at 1 uM
In short: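 Commercial (7 nM) or in-house (15 nM) enzyme preincubated 30 min with compound at 25° C, then 100 μM Boc-Gln-Ala-Arg-AMC added; fluorescence (Ex 360/Em 480 nm) read at 60 min. 1% DMSO final. IC50 from variable-slope sigmoidal fit of % inhibition.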

[1] = 1 uM compound, Assay Used = B (Method B)
[2] = compound at 1 uM, Assay Used: B

Compound | inhibition at 1 µM [1] | inhibition at 1 µM (1 uM compound, Assay Used = B) | also measured
CNC(=N)c1ccc2[nH]c(C(=O)N[C@H]3CC[C@H](N)CC3)c(Cc3cccc4ccccc34)c2c1 [Compound I-747] | 0 to 25% |  | 
CC(C)(C)OC(=O)NC(=N)c1ccc2cc(C(=O)N3CC[C@H](O)C3)n(Cc3cccc4ccccc34)c2c1 (stereo in doubt) [Compound I-424] |  | 0 to 25% | 
N=C(N)c1ccc2c(F)c(C(=O)O)n(Cc3cccc4ccccc34)c2c1 [Compound I-577, 6-carbamimidoyl-3-fluoro-1-(naphthalen-1-ylmethyl)-1H-indole-2-carboxylic Acid] |  | 50 to 75% | 
N/C(=N\O)c1ccc2c(c1)cc(C(=O)O)n2Cc1cccc2ccccc12 [Compound I-660] | 0 to 25% |  | 
N=C(N)c1ccc2cc(C(=O)O)n(C[C@H]3CCCc4ccccc43)c2c1 (racemic) [Compound I-613] | 25 to 50% |  | 
CS(=O)(=O)Nc1cc2ccc(C(=N)N)cc2n1Cc1cccc2ccccc12 [Compound I-749, 2-(methylsulfonamido)-1-(naphthalen-1-ylmethyl)-1H-indole-6-carboximidamide] | 50 to 75% |  | 
N=C(N)c1ccc2cc(C(=O)NC34CC5C[C@H](C3)C[C@](O)(C5)C4)n(Cc3cccc4ccccc34)c2c1 (stereo in doubt) [Compound I-449] |  | 25 to 50% | 
CN1CCC(COC(=O)c2cc3ccc(C(=N)N)cc3n2Cc2cccc3ccccc23)CC1 [Compound I-761] | 75 to 100% |  | 
N=C(N)c1ccc2cc(C(=O)N[C@H]3CC[C@H](N)CC3)n(Cc3cc(-c4ccc(Cl)s4)on3)c2c1 [Compound I-773] | 50 to 75% |  | 
N=C(N)c1ccc(CNC(=O)c2cc3ccc(C(=N)N)cc3n2Cc2cccc3ccccc23)cc1 [Compound I-395] |  |  | inhibition at 1 µM (at 1 uM, Assay Used = B): 75 to 100%
Cn1c(C(=O)O)c(-c2ccc3ccccc3c2)c2cc(C(=N)N)ccc21 [Compound I-637] | 0 to 25% |  | 
CC(C)(C)OC(=O)NC(=N)c1ccc2cc(C(=O)N3CC[C@H](NC(=O)OC(C)(C)C)C3)n(Cc3cccc4ccccc34)c2c1 (stereo in doubt) [Compound I-428] |  | 0 to 25% | 
CC(C)(C)OC(=O)N[C@H]1CC[C@H](NC(=O)c2cc3ccc(C(=N)N)cc3n2Cc2ccc3ccccc3c2)CC1 [Compound I-402, tert-butyl ((1r,4r)-4-(6-carbamimidoyl-1-(naphthalen-2-ylmethyl)-1H-indole-2-carboxamido)cyclohexyl) carbamate] |  |  | Mar-2 % inhibition at 1 uM (1 uM compound, Assay Used = B): A (A represents 0%≤I≤25%)
N=C(NC(=O)Oc1ccccc1)c1ccc2cc(C(=O)O)n(Cc3cc(Oc4ncccn4)cc4ccccc34)c2c1 [Compound I-551] |  |  | inhibition at 1 µM: 0 to 25%
NCc1ccc2cc(C(=O)N[C@H]3CC[C@H](N)CC3)n(Cc3cccc4ccccc34)c2c1 [Compound I-531, N-((1r,4r)-4-aminocyclohexyl)-6-(aminomethyl)-1-(naphthalen-1-ylmethyl)-1H-indole-2-carboxamide] |  | 50 to 75% | 
CS(=O)(=O)N[C@H]1CC[C@@H](NC(=O)c2cc3ccc(C(=N)N)nc3n2Cc2cccc3ccccc23)CC1 [Compound I-723] | 75 to 100% |  | 
N=C(N)c1ccc2cc(C(=O)N[C@H]3CC[C@H](N)CC3)n(Cc3cccc4ccsc34)c2c1 [Compound I-818] |  |  | inhibition at 1 µM [2]: 50 to 75%
N=C(N)c1ccc2cc(C(=O)NCCc3c[nH]c4ccc(O)cc34)n(Cc3cc(Oc4ncccn4)cc4ccccc34)c2c1 [Compound I-826] |  |  | inhibition at 1 µM [2]: 25 to 50%
N=C(N)c1ccc2cc(C(=O)OCCNC(N)=O)n(Cc3cc(Oc4ncccn4)cc4ccccc34)c2c1 [Compound I-568] |  | 75 to 100% | 
N=C(N)c1ccc2cc(C(=O)O)n(-c3cccc4ccccc34)c2c1 [Compound I-489] |  | 0 to 25% | 
CCOC(=O)c1cc2ccc(C(=N)N)cc2n1Cc1cc(S(=O)(=O)c2ccccc2)cc2ccccc12 [Compound I-669] | 25 to 50% |  | 
N=C(N)c1ccc2cc(C(=O)O)n(Cc3cc(Oc4cccnc4)cc4ccccc34)c2c1 [Compound I-626] | 25 to 50% |  | 
CC(C)(C)OC(=O)NC(=N)c1ccc2cc(C(=O)NC3CCCN(C(=O)OC(C)(C)C)C3)n(Cc3cccc4ccccc34)c2c1 (stereo not shown) [Compound I-427] |  | 0 to 25% | 
NCc1ccc2cc(C(=O)N[C@H]3CC[C@H](O)CC3)n(Cc3cccc4ccccc34)c2c1 [Compound I-532] |  | 25 to 50% | 
N=C(N)c1ccc2cc(CC(=O)N[C@H]3CC[C@H](N)CC3)n(Cc3cccc4ccccc34)c2c1 [Compound I-717] | 75 to 100% |  | 

Compound | inhibition at 1 µM [1] | inhibition at 1 µM (1 uM compound, Assay Used = B) | also measured
CCOC(=O)NC(=N)c1ccc2cc(C(=O)OCC)n(Cc3cc(Oc4ncccn4)cc4ccccc34)c2c1 [Compound I-559] |  | 25 to 50% | 
N=C(N)c1ccc2cc(C(=O)N[C@H]3CC[C@H](N)CC3)n(Cc3cc(Oc4ccsc4)cc4ccccc34)c2c1 [Compound I-631] | 75 to 100% |  | 
COC(=O)c1cc2ccc(C(=N)N)cc2n1Cc1cc(O)cc2ccccc12 [Compound I-696] | 50 to 75% |  | 
N=C(N)c1ccc2cc(C(=O)NCCN)n(Cc3cc(Oc4ccccc4)cc4ccccc34)c2c1 [Compound I-634] | 75 to 100% |  | 
N=C(N)c1ccc2cc(C(=O)N[C@@H]3CCNC3)n(Cc3cccc4ccccc34)c2c1 [Compound I-433] |  | 75 to 100% | 
CN1CCC(NC(=O)c2cc3ccc(C(=N)N)cc3n2Cc2cccc3ccccc23)CC1 [Compound I-432] |  | 75 to 100% | 
N=C(N)c1ccc2cc(C(=O)N[C@H]3CCCc4ccccc43)n(Cc3cccc4ccccc34)c2c1 [Compound I-764] | 0 to 25% |  | 
CC(C)(C)OC(=O)N[C@H]1CC[C@H](NC(=O)c2cc3ccc(C(=N)N)cc3n2CCc2cccc3ccccc23)CC1 [Compound I-404] |  | 0 to 25% | 
N=C(N)c1ccc2cc(C(=O)NC3CCCCC3)n(Cc3cccc4ccccc34)c2c1 [Compound I-438] |  | 25 to 50% | 
N=C(N)c1ccc2c(C(N)=O)c(C(=O)N[C@H]3CC[C@H](N)CC3)n(Cc3cccc4ccccc34)c2c1 [Compound I-513, N2-((1r,4r)-4-aminocyclohexyl)-6-carbamimidoyl-1-(naphthalen-1-ylmethyl)-1H-indole-2,3-dicarboxamide] |  | 25 to 50% | 
N=C(N)c1ccc2c(CO)c(C(=O)N[C@H]3CC[C@H](N)CC3)n(Cc3cccc4ccccc34)c2c1 [Compound I-619] |  |  | Mar-2 % inhibition at 1 uM [1]: A (A represents 0%≤I≤25%)
CC(C)(C)S(=O)(=O)c1cccc2c(Cn3c(C(=O)N[C@H]4CC[C@H](N)CC4)cc4ccc(C(=N)N)cc43)cccc12 [Compound I-742] | 50 to 75% |  | 
N=C(N)c1ccc2cc(C(=O)NC3CC4CC3CN4)n(Cc3cccc4ccccc34)c2c1 (stereo not shown) [Compound I-480] |  | 75 to 100% | 
Cc1c(C(=O)N[C@H]2CC[C@H](N)CC2)n(Cc2cccc3ccccc23)c2cc(C(=N)N)ccc12 [Compound I-633] | 75 to 100% |  | 
N=C(N)c1ccc2cc(C(=O)N[C@H]3CC[C@H](N)CC3)n(Cc3ccc(CO)c4ccccc34)c2c1 [Compound I-824] |  |  | inhibition at 1 µM [2]: 75 to 100%
CC(C)(C)OC(=O)NC(=N)c1ccc2cc(C(=O)NC3CCC(NC(=O)OC(C)(C)C)CC3)n(Cc3cccc(Cl)c3Cl)c2c1 (stereo not shown) [Compound I-493] |  | 0 to 25% | 
CC(C)OC(=O)NC(=N)c1ccc2cc(C(=O)O)n(Cc3cccc4ccccc34)c2c1 [Compound I-786] | 0 to 25% |  | 
N=C(N)c1cc2c(cn1)cc(C(=O)NC1CCC(N)CC1)n2Cc1cccc2ccccc12 (stereo not shown) [Compound I-690] | 75 to 100% |  | 
N=C(N)c1ccc2cc(C(=O)N3CCOCC3)n(Cc3cccc4ccccc34)c2c1 [Compound I-468] |  | 25 to 50% | 
N=C(N)c1ccc2cc(C(=O)N[C@H]3CC[C@H](N)CC3)n(Cc3ccc(Oc4ccccc4)c4ccccc34)c2c1 [Compound I-701] | 75 to 100% |  | 
N=C(N)c1ccc2cc(C(=O)N[C@H]3CC[C@H](N)CC3)n(C[C@H]3CCc4ccccc43)c2c1 (racemic) [Compound I-616] | 25 to 50% |  | 
NCCCCNC(=O)c1cc2ccc(CN)cc2n1Cc1cccc2ccccc12 [Compound I-541] |  | 0 to 25% | 
N=C(N)c1ccc2cc(C(=O)N[C@H]3CC[C@H](NC(N)=O)CC3)n(Cc3cccc4ccccc34)c2c1 [Compound I-736] | 50 to 75% |  | 
N=C(N)c1ccc2nc(C(=O)N[C@H]3CC[C@H](N)CC3)n(Cc3cccc4ccccc34)c2c1 [Compound I-542, N-((1r,4r)-4-aminocyclohexyl)-6-carbamimidoyl-1-(naphthalen-1-ylmethyl)-1H-benzo[d]imidazole-2-carboxamide] |  | 75 to 100% | 
